Measurements from patent US10130695B2, “Compositions containing combinations of bioactive molecules derived from microbiota for treatment of disease” (priority 2013, dated 2018).

Tests used:
[1] = tested on: Splenic naïve (CD44loCD62Lhi) CD4+ T cells; test: Treg induction in vitro (FACS); format: cell-based; settings: anti-CD3/anti-CD28 mAb-coated beads, TGF-β; compared to no treatment control; FIG. 1
Source text: First, to gain mechanistic insight into the induction of Tregs by bacteria belonging to Clostridium Clusters IV, XIVa, and XVIII, germ-free mice were colonized with a cocktail of bacteria comprising bacterial strains belonging to Clostridium Cluster IV, bacterial strains belonging to Clostridium Cluster XIVa, and bacterial strains belonging to Clostridium Cluster XVIII (“Clostridium-colonized mice”). To identify metabolites potentially involved in Treg induction, the hundreds of metabolites present in the luminal composition of Clostridium-colonized, ex-germ free mice were painstakingly investigated with NMR-based metabolome analysis coupled with principal component analysis (PCA). […] The influence of acetate, propionate, and butyrate on Treg induction in vitro was measured as follows: Splenic naïve (CD44^loCD62L^hi) CD4+ T cells were stimulated with anti-CD3 and anti-CD28 mAb-coated beads and cultured in the presence of T-cell antigen receptor signaling and TGF-β with or without each of these short-chain fatty acids listed above.

[2] = tested on: OT-I CD8 T cells with colonic lamina propria CD4+CD25+ Treg cells; test: Cognate antigen-driven suppression assay; format: cell-based, mice; settings: experiment repeated adding flagellin; after 3 days
Protocol: Fourth, investigation was carried to determine whether bacteria belonging to Clostridium Clusters IV, XIVa, and XVIII provide bacterial antigens to T cells. To do this, assessment was carried out of the antigen specificity of Tregs accumulated in mice colonized by a mixture of 17strains belonging to Clostridium Clusters, […] (“17-mix”) using a cognate antigen-driven suppression assay. […] CD 11c+cells were isolated from spleens of SPF C57BL/6 mice, pulsed with 0.5 μM SIINFEKL (SEQ ID NO: 2) OT-I peptide alone or in combination with either of 5μM ISQAVHAAHAEINEAGR (SEQ ID NO: 3) OT-II peptide or autoclaved caecal contents from +17-mix mice, and plated at 5 x 10^4well. CD8OT-I T cells (Teff) were added to the CD11c+cell-seeded plates at 5 x 10^4/well. Then, CD4+CD25+T cells sorted from colonic LP of +17-mix mice (LP Treg) or from spleens of SPF OT-II mice (OT-II Treg) were added to the culture at the indicated ratio of Treg to Teff cells. After 3 days, all cells were harvested, stained with anti-CD4 and anti-CD8antibodies, and analysed by flow cytometry to enumerate the number of CD8 OT-I T cells. Depicted data in FIG. 4b represent average of duplicates. […]

CC(=O)O [acetate]
differentiation of Treg cells [1]: enhanced differentiation of Treg cells

CCC(=O)O [propionate]
differentiation of Treg cells [1]: enhanced differentiation of Treg cells

B1: flagellin: flagellin (SEQ ID NO 1), an antigen highly abundant in bacteria belonging to Clostridium Clusters IV, XIVa, and XVIII (protein)
chain: MVVQHNLQAMNSNRMLGITQKTASKSTEKLSSGYAINRAADNAAGLAISEKMRKQIRGLTQASTNAEDGISSVQTAEGALTEVHDMLQRMNELAIQAANGTNSEDDRSYIQDEIDQLTQEIDRVAETTKFNETYLLKGDTKNVDAMDYTYSYKAVTTNTVARASVLAAENTATGMSVSISFAANSGKVTAADSNNLAKAIRDQGFTITTSTQNGKVVYGLELNGSDAKANYTVSTVSMEAGTFKILNSNKQVVASVTISTTASFKKVSGMSQIVTAYSVSAAYATGDVYSLYDADGNAISANKLDKYFTAGGATEAGGIATTLSANSGVPKVYDVLGKEVSAVSIASTLVTAVKDKTAALKMNFHVGADGTDNNKIKINIEAMTAKSLGVNGLKVSGSSGTNATNAIEIIAGAIKKVSTQRSALGAVQNRLEHTINNLDNIVENTTAAESGIRDTDMATEMVKYSNANILSQAGQSMLAQSNQSNQGVLQLLQ
colonic Lamina Propria Treg cells specific for the antigen [2]: colonic Lamina Propria Treg cells specific for flagellin were isolated
